Measured values published in patent US5736529A, “Use of NAD-related compounds in the treatment of neural trauma to inhibit neurodegeneration” (priority 1996, dated 1998).
Where two headings read alike, the source gives them in different places.

Tests used:
[1] = system: DNA in brain regions of C57BL/6 mice; experiment: Second experiment, tBuOOH induced DNA fragmentation (FIG. 2, FIG. 3); format: in vivo, mouse (male C57BL/6)
Procedure: A second experiment was conducted to measure the degree of DNA fragmentation. […] Male C57BL/6 mice, of ages 2, 8 or 24 months old, were treated with tBuOOH ICV. Mice in the 20 minute group were treated with 110 mg/kg of tBuOOH and maintained for 20 minutes until brains were removed and analyzed for DNA fragmentation. This dose of tBuOOH induces cellular necrosis in a number of brain regions. Mice in the 48 hour group were given 22 mg/kg of tBuOOH and maintained for 48 hours. This dose of tBuOOH induces apoptosis and a small amount of necrosis in a number of brain regions.

[2] = system: NADPH; experiment: Pyridine dinucleotide quantitation, NADPH in brain regions; format: in vivo, mouse (male C57BL/6); conditions: 110 mg/kg ICV, 8 month old mice
Source text: NADPH and NADH are stable in base. Fortunately, the cyanide reaction proceeds optimally in base.

[3] = system: DNA in brain regions of C57BL/6 mice; conditions: for DNA fragmentation, low dose: 21.9 mg/kg
Procedure: 24 month old C57BL/6 mice were divided into 3 groups of 3 mice each. One group was the control. A second group of mice was treated ICV with 109.7 mg/kg t-BuOOH and then sacrificed 20 minutes later. A third group of mice were treated ICV with 21.9 mg/kg t-BuOOH and then sacrificed 48 hours later. […] The brains were removed from the treated mice and were sectioned into the following six regions: cortex, striatum, hippocampus, thalamus, midbrain and cerebellum. DNA damage has been expressed as a ratio of the damaged DNA to the total DNA per gram of tissue.
DNA fragmentation was assessed in […] samples of tissue from a brain region. A volume of 0.2 ml of ice cold lysing buffer (10 mM Tris-HCl, pH 7.5, 1 mM EDTA, and 0.2% Triton X-100) was added to each section, which was then centrifuged at 12,000 g for 25 minutes to separate the intact from the fragmented DNA. The supernatant (containing the fragmented DNA) was transferred to a separate tube. 0.2 ml of the lysing buffer was added to the pellet with sonication for 10 seconds. The amount of DNA in the supernatant and pellet fractions was determined by a fluorimetric method, using the dye Hoechst 33258. DNA damage is presented as the ratio of DNA in the supernatant to the total DNA in the pellet and supernatant per gram of tissue^17.
8 month old mice were divided into 4 groups (n=5 each). Group 1 was the control. Mice in group 2 were treated with 109.7 mg/kg t-BuOOH and then sacrificed 20 minutes later. […] The same procedures were performed as with the 24 month old mice.

[4] = system: C57BL/6 mice; experiment: Behavior and survival of mice after ICV tBuOOH; format: in vivo, mouse (male C57BL/6)
Procedure: In general male C57BL/6 mice (2, 8 or 24 months old) were anesthetized with ketamine and xylazine (200 and 2 mg/kg, ip). They were injected ICV with tBuOOH in doses of approximately 22 or 110 mg/kg. This amounts to 1 or 5 μl of a 70% solution of tBuOOH injected slowly into a lateral cerebral ventricle. A mouse brain weighs about 400 mg. […] Animals recovered from anesthesia about 30 minutes or so after tBuOOH administration. […] Low dose mice survived for 48 hours or more.

[5] = system: NAD; conditions: 110 mg/kg ICV; 8 month old mice
Procedure: Male C57 B 1/6 mice, 8 months old, were treated ICV with tBuOOH (110 mg/kg) and maintained for 2, 5, 20 or 120 minutes. Anesthetized tBuOOH treated mice were immersed in liquid nitrogen to freeze their brains. The frozen brains were removed and dissected over dry ice. The brain regions were homogenized and analyzed by HPLC to determine NAD, NADH, NADP and NADPH levels as described previously. It is very important to stabilize the pyridine dinucleotides to prevent artifactual oxidation. NAD and NADP were stabilized by homogenization of brain regions in a cyanide containing solution. The cyanide reacts with the compounds forming cyano adducts that are stable. NADPH and NADH were stabilized by homogenizing brain regions in basic solution. NADPH and NADH are stable in base. Fortunately, the cyanide reaction proceeds optimally in base. Therefore, use of basic cyanide solutions during the homogenization produced optimal stabilization of NAD, NADP, NADH and NADPH. Following extraction with chloroform, centrifugation at 12,000 g for 5 minutes at 5° C., and filtration through 0.45μ positively charged nylon filters to remove DNA, the supernatants were injected onto a reverse phase HPLC column ("REXCHROME" ODS 5μ, Regis, Morton Grove, Ill.). Fluorescence detection (330 nm, excitation, 460 nm emission) was used to detect fluorescent NADH, NADPH and the cyano adducts of NAD and NADP.

[6] = system: 24 month old mice; conditions: 24 month old mice; 21.9 mg/kg t-BuOOH only
[7] = in vivo; cited from earlier work
[8] = 8 month old mice, 109.7 mg/kg t-BuOOH, 20 min
[9] = 8 month old mice, 109.7 mg/kg t-BuOOH, 20 min, * p<0.05 vs control
[10] = 24 month old mice, 21.9 mg/kg t-BuOOH ICV, 48 hours, * p<0.05 vs control
[11] = 24 month old mice, 109.7 mg/kg t-BuOOH ICV, 20 min, * p<0.05 vs control

CC(C)(C)OO [tBuOOH, t-butylhydroperoxide]
DNA fragmentation in the cerebellum ([1]; 2, 8 and 24 month old mice, 48 hours): increased significantly | DNA fragmentation in the cortex ([1]; 2 and 8 month old mice): no increase in DNA fragmentation in the cortex | DNA fragmentation in the striatum, midbrain and hippocampus ([1]; 2 month old mice): increased DNA fragmentation | tBuOOH induced necrosis in the thalamus at 20 minutes ([1]; 8 and 24 month old vs 2 month old mice): 8 and 24 month old mice are more sensitive than 2 month old mice | DNA fragmentation in the cortex ([1]; 24 month old mice, also found in the hippocampus): robust increase in DNA fragmentation in the cortex | apoptosis induced DNA fragmentation in the thalamus ([1]; 48 hours after tBuOOH): found only in 24 month old mice | time of appearance of DNA fragments in the brain ([1]; after tBuOOH administration): ≤ 2 min | time for NADPH to return to control values [2]: ≤ 5 min | NADPH oxidation ([2]; every brain region): oxidized rapidly | DNA fragmentation, low dose ([3]; 8 month old mice): significantly higher DNA fragmentation values were seen only in the cerebellum | DNA fragmentation, low dose ([3]; 24 month old mice): significant increases in DNA fragmentation were observed in almost all brain regions (except the striatum) | DNA fragmentation in the cortex or hippocampus ([3]; 109.7 mg/kg, 8 month old mice): no significant increase in DNA fragmentation | DNA fragmentation in many brain regions ([3]; 109.7 mg/kg, 24 and 8 month old mice): Significant DNA fragmentation | DNA fragmentation, cortex [3, 8]: 0.83 ± 0.14 per gram of tissue | DNA fragmentation, hippo [3, 8]: 0.768 ± 0.16 per gram of tissue | DNA fragmentation, cerebellum [3, 9]: 1.16 ± 0.15 per gram of tissue | DNA fragmentation, midbrain [3, 9]: 2.37 ± 0.43 per gram of tissue | DNA fragmentation, striatum [3, 9]: 2.33 ± 0.46 per gram of tissue | DNA fragmentation, thala [3, 9]: 2.65 ± 0.88 per gram of tissue | DNA fragmentation in the cerebellums (FIG. 5) ([3]; 8 month old mice, p<0.05): Statistically significantly different from control values and tBuOOH with nicotinamide | DNA fragmentation, striatum ([3]; 24 month old mice, 21.9 mg/kg t-BuOOH ICV, 48 hours): 1.94 ± 0.31 per gram of tissue | DNA fragmentation, cerebellum [3, 10]: 1.71 ± 0.45 per gram of tissue | DNA fragmentation, cortex [3, 10]: 1.55 ± 0.19 per gram of tissue | DNA fragmentation, hippo [3, 10]: 1.43 ± 0.23 per gram of tissue | DNA fragmentation, midbrain [3, 10]: 2.04 ± 0.53 per gram of tissue | DNA fragmentation, thala [3, 10]: 2.13 ± 0.31 per gram of tissue | DNA fragmentation, cerebellum [3, 11]: 1.84 ± 0.45 per gram of tissue | DNA fragmentation, cortex [3, 11]: 1.73 ± 0.23 per gram of tissue | DNA fragmentation, hippo [3, 11]: 1.44 ± 0.20 per gram of tissue | DNA fragmentation, midbrain [3, 11]: 2.77 ± 0.65 per gram of tissue | DNA fragmentation, striatum [3, 11]: 2.46 ± 0.33 per gram of tissue | DNA fragmentation, thala [3, 11]: 2.52 ± 0.43 per gram of tissue | behavior of low dose animals ([4]; about 22 mg/kg ICV): move about freely and resemble mice treated ICV with 0.9% saline | appearance of high dose mice and death ([4]; about 110 mg/kg ICV): frequently appeared inactive until death | time of death after treatment ([4]; high dose (about 110 mg/kg ICV)): about 2 hours | survival ([4]; low dose (about 22 mg/kg ICV)): ≥ 48 h | NAD levels after tBuOOH [5]: slowly and partially depleted | deaths [6]: Three out of six | brain permeation [7]: readily permeate throughout the brain
